The text below walks through data of US20230096766A1, “AMINO ACID HAVING FUNCTIONAL GROUP CAPABLE OF INTERMOLECULAR HYDROGEN BONDING, PEPTIDE COMPOUND CONTAINING SAME AND METHOD FOR PRODUCTION THEREOF” (Chugai Seiyaku Kabushiki Kaisha, priority 2018, published 2023).

*1 amine or outer side, *2 acyl side, *3 side chain or, on linkers, in order; H or OH if unused. Where a SMILES comes first, the peptide text is derived from it. Bridges are numbered along the chain shown (N, C = ends). [ ]: non-standard residue; d: D form. The star is where a group is joined. ξ: configuration not given here. X10 = CN([C@@H](CCN1CCC(F)(F)CC1)C(=O)[*:2])[*:1]; NMePhe(3-Cl) = CN[C@@H](Cc1cccc(Cl)c1)C(=O)O; NMeW = CN[C@@H](Cc1c[nH]c2ccccc12)C(=O)O; X7 = O=C(C[C@H](COCCO)N[*:1])[*:2]; NMeF = CN[C@@H](Cc1ccccc1)C(=O)O; NMeI = CC[C@H](C)[C@H](NC)C(=O)O; NMeξIle = CC[C@H](C)C(NC)C(=O)O; NMeL = CN[C@@H](CC(C)C)C(=O)O; Propyl(2R-OH) = C[C@@H](O)C*; NMeV = CN[C@H](C(=O)O)C(C)C; ξIle = CC[C@H](C)C(N)C(=O)O; NMeAbu = CC[C@H](NC)C(=O)O; NMeA = CN[C@@H](C)C(=O)O; Piperidide = C1CCN(*)CC1; CH2CMe2OH = CC(C)(O)C*; X8 = C1COC[C@@H](C*)N1; NBuGly = CCCCNCC(=O)O; Isopentyl = CC(C)CC*; NPrGly = CCCNCC(=O)O; Sar = CNCC(=O)O

A short description of one series: in vitro. To be noted: human, Caco-2, Caco-2.
On to `CCCCN1CC(=O)N(C)[C@@H](Cc2ccccc2)C(=O)N[C@@H](CC(C)C)C(=O)N(C)[C@@H](CC(C)C)C(=O)N[C@@H]([C@@H](C)O)C(=O)N(C)CC(=O)N(C)[C@@H](Cc2ccccc2)C(=O)N(C)[C@@H](CCN2CCC(F)(F)CC2)C(=O)N[C@@H](CC(C)C)C(=O)N(C)[C@@H](C(C)C)C(=O)N[C@H](C(=O)N2CCCCC2)CC1=O` [pd395] ([NBuGly][NMeF]L[NMeL]T[Sar][NMeF][X10]L[NMeV]D-Piperidide; lactam N-11), for which the Papp was 1.7 ×10⁻⁶ cm/s.
For `CCCCN1CC(=O)N(C)[C@@H](CC(C)C)C(=O)N[C@@H](CC(C)C)C(=O)N(C)[C@@H](Cc2ccccc2)C(=O)N(C)[C@@H](C)C(=O)N[C@H](C(=O)N2CCCCC2)CC(=O)N[C@H](C(C)C)C(=O)N(C)[C@@H](Cc2ccccc2)C(=O)N[C@@H](CC(C)C)C(=O)N(C)[C@@H](CCN2CCC(F)(F)CC2)C(=O)N[C@@H]([C@@H](C)O)C1=O` [pd394] ([dV][NMeF]L[X10]T[NBuGly][NMeL]L[NMeF][NMeA]D-Piperidide; lactam N-11), the Papp stood at 1.8 ×10⁻⁶ cm/s.

The same series, now with this note: human, Caco-2, Caco-2 (cm/sec).
Regarding `CCCN1CC(=O)N(C)[C@@H](CC(C)C)C(=O)N[C@@H](COCCC(C)C)C(=O)N(C)[C@@H](Cc2ccccc2)C(=O)N(C)[C@@H](C(C)C)C(=O)N[C@H](C(=O)N2CCCCC2)CC(=O)N[C@H](C(C)C)C(=O)N(C)[C@@H](Cc2ccccc2)C(=O)N[C@@H](COCC(C)(C)O)C(=O)N(C)[C@@H](CC(C)C)C(=O)N[C@@H]([C@@H](C)O)C1=O` [AP01] ([dV][NMeF]S(CH2CMe2OH)[NMeL]T[NPrGly][NMeL]S(Isopentyl)[NMeF][NMeV]D-Piperidide; lactam N-11), the apparent permeability coefficient (Papp) was 1.4 ×10⁻⁶ cm/s.
The same measure, in the same setting: the result for `CC[C@H](C)C1C(=O)N[C@@H]([C@@H](C)O)C(=O)N(C)CC(=O)N(C)[C@@H](CC(C)C)C(=O)N[C@H](C(=O)N2CCCCC2)CC(=O)N(C)[C@@H](C)C(=O)N[C@@H](CC(C)C)C(=O)N(C)[C@@H](CC(C)C)C(=O)N(C)[C@@H](Cc2c[nH]c3ccccc23)C(=O)N[C@@H](C(C)C)C(=O)N(C)[C@@H](CC(C)C)C(=O)N1C` (stereo partly drawn) [pd102] ([NMeA]L[NMeL][NMeW]V[NMeL][NMeξIle]T[Sar][NMeL]D-Piperidide; lactam N-11) reads 1.1 ×10⁻⁶ cm/s; that for `CCCCN1CC(=O)N(C)[C@@H](CC(C)C)C(=O)N[C@H](C(=O)N2CCCCC2)CC(=O)N(C)[C@@H](CC(C)C)C(=O)N[C@@H](COCCO)CC(=O)N(C)[C@@H](CC(C)C)C(=O)N(C)[C@@H](Cc2ccccc2)C(=O)N[C@@H](CC(C)C)C(=O)N(C)[C@@H](Cc2ccccc2)C(=O)N(C)[C@@H](CC(C)C)C(=O)N[C@@H]([C@@H](C)O)C1=O` [AP23] ([NMeL][X7][NMeL][NMeF]L[NMeF][NMeL]T[NBuGly][NMeL]D-Piperidide; lactam N-11), 0.43 ×10⁻⁶ cm/s; that for `CCCCN1CC(=O)N(C)[C@@H](Cc2ccccc2)C(=O)N(C)[C@@H](CC(C)C)C(=O)N[C@@H](COC[C@@H]2COCCN2)C(=O)N(C)[C@@H](CC(C)C)C(=O)N[C@H](C(=O)N2CCCCC2)CC(=O)N(C)CC(=O)N(C)[C@@H](CC(C)C)C(=O)NC([C@@H](C)CC)C(=O)N(C)[C@@H](CC(C)C)C(=O)N[C@@H]([C@@H](C)O)C1=O` (stereo partly drawn) [AP245] ([Sar][NMeL][ξIle][NMeL]T[NBuGly][NMeF][NMeL]S(X8)[NMeL]D-Piperidide; lactam N-11), 0.1 ×10⁻⁶ cm/s.
The compound `CC[C@H](C)[C@H]1C(=O)N[C@@H]([C@@H](C)O)C(=O)N(C)CC(=O)N(C)[C@@H](CC(C)C)C(=O)N[C@H](C(=O)N2CCCCC2)CC(=O)N(C)[C@@H](C(C)C)C(=O)N[C@@H](COC[C@@H](C)O)C(=O)N(C)[C@@H](CC(C)C)C(=O)N(C)[C@@H](Cc2cccc(Cl)c2)C(=O)N[C@@H](CC(C)C)C(=O)N(C)[C@@H](Cc2ccccc2)C(=O)N1C` [AP79] ([NMeV]S(Propyl(2R-OH))[NMeL][NMePhe(3-Cl)]L[NMeF][NMeI]T[Sar][NMeL]D-Piperidide; lactam N-11) gave a Papp of 1.1 ×10⁻⁶ cm/s.
Same read-out and setting: under `CC[C@H](C)[C@H]1C(=O)N[C@@H](C(C)C)C(=O)N(C)CC(=O)N(C)[C@@H](CC(C)C)C(=O)N[C@H](C(=O)N2CCCCC2)CC(=O)N(C)[C@@H](C)C(=O)N[C@@H](COC[C@@H](C)O)C(=O)N(C)[C@@H](CC(C)C)C(=O)N(C)[C@@H](Cc2ccccc2)C(=O)N[C@@H](CC(C)C)C(=O)N(C)[C@@H](Cc2ccccc2)C(=O)N1C` [AP86] ([NMeA]S(Propyl(2R-OH))[NMeL][NMeF]L[NMeF][NMeI]V[Sar][NMeL]D-Piperidide; lactam N-11) stands 3.7 ×10⁻⁶ cm/s; under `CCCCN1CC(=O)N(C)[C@@H](CC(C)C)C(=O)N[C@@H](COC[C@@H]2COCCN2)C(=O)N(C)[C@@H](CC(C)C)C(=O)N(C)[C@@H](CC(C)C)C(=O)N[C@H](C(=O)N2CCCCC2)CC(=O)N[C@H](C(C)C)C(=O)N(C)[C@@H](Cc2ccccc2)C(=O)N[C@@H](CC(C)C)C(=O)N(C)[C@@H](CC)C(=O)N[C@@H]([C@@H](C)O)C1=O` [AP239] ([dV][NMeF]L[NMeAbu]T[NBuGly][NMeL]S(X8)[NMeL][NMeL]D-Piperidide; lactam N-11), 0.18 ×10⁻⁶ cm/s.
